Tests used:
[1] = acute toxicity, single oral administration to mice; conditions: mouse, in vivo
Excerpt: (§1) The following Table contains results obtained in the previously described experiment with representative compounds of formula I. In this Table there are given for each compound in question the dosage administered (in mg/kg p.o.) as well as the percentage variation in the urine volume), the sodium excretion and the potassium excretion in comparison with the control animals (i.e. in comparison with the animals treated only with aldosterone). Moreover, the Table contains data relating to the acute toxicity of the compounds investigated (LD 50 in mg/kg in the case of a single oral administration to mice).

[2] = system: adrenalectomised rats treated with aldosterone; assay: aldosterone-antagonistic activity in adrenalectomised rats (urine volume, sodium and potassium excretion over 3 hours); format: in vivo, Female Holtzmann rats; conditions: for (K+) potassium excretion in %, based on control animals / (Na+) sodium excretion in %, based on control animals / Volume (urine volume) in %, based on control animals: 1 mg/kg p.o., aldosterone 4 mmg/kg s.c. 30 min later, vs animals treated only with aldosterone, urine collected 3 h
Protocol: If compounds of formula I are administered to the animals before the treatment with aldosterone, then there is observed, in comparison to animals treated only with aldosterone (control animals), a pronounced increase of the sodium excretion (i.e. the sodium retention caused by aldosterone is antagonised), whereas the potassium excretion and the urine volume are influenced to a lesser extent.
The standard experiment is carried out as follows:
Female Holtzmann rats (150-180 g) are bilaterally adrenalectomised 70 to 74 hours before the beginning of the experiment. After the operation, the animals receive a customary rat dry feed and 0.9 percent sodium chloride solution for drinking. 16 to 17 hours before the beginning of the experiment the feed is removed from the animals, but they can subsequently drink, as before, 0.9 percent sodium chloride solution ad libitum. At the beginning of the experiment the substance to be tested as an aldosterone-antagonist is administered to the animals by means of a stomach probe. 30 minutes later the animals receive a subcutaneous injection of 4 mmg/kg of aldosterone. After a further 90 minutes, the urinary bladders of the animals are emptied by careful suprapubic pressure, whereupon the animals are placed individually in metabolic cages without food and without drink. The urine of the animals is then collected for 3 hours, whereupon their urinary bladders are once more emptied. The spontaneously excreted urine and the remaining urine obtained at the conclusion of the experiment by pressing-out the urinary bladders are collected in graduated centrifuge glasses. Sodium and potassium concentrations in the urine are determined with a flame photometer.
as §1

[3] = in comparison to untreated animals

SMILES | LD50 [1] | (K+) potassium excretion in %, based on control animals [2] | (Na+) sodium excretion in %, based on control animals [2] | Volume (urine volume) in %, based on control animals [2] | excreted urine volume after aldosterone alone [2, 3] | potassium excretion after aldosterone alone [2, 3] | sodium excretion after aldosterone alone [2, 3]
CN1C(=O)CN=C(c2ccccc2F)c2c1cc(Cl)c(NC(=O)N1CCN(CCO)CC1)c2Cl [Example 5, N-[6,8-dichloro-5-(o-fluorophenyl)-2,3-dihydro-1-methyl-2-oxo-1H-1,4-benzodiazepin-7-yl]-4-(2-hydroxyethyl)-1-piperazinecarboxamide] | > 5000 mg/kg | 120% | 300% | 173% |  |  | 
C[C@]12CCC(=O)C=C1CC[C@@H]1[C@@H]2[C@@H](O)C[C@]2(C=O)[C@@H](C(=O)CO)CC[C@@H]12 [aldosterone, reference compound] |  |  |  |  | reduction of the excreted urine volume | increased potassium excretion | pronounced reduction of the sodium excretion
CN1C(=O)CN=C(c2ccccc2F)c2c1cc(Cl)c(NC(=O)NCCN1CCOCC1)c2Cl [Example 6, 1-[6,8-dichloro-5-(o-fluorophenyl)-2,3-dihydro-1-methyl-2-oxo-1H-1,4-benzodiazepin-7-yl]-3-(2-morpholinoethyl)urea] | 5000 mg/kg | 91% | 254% | 183% |  |  | 
CN(C)C(=O)Nc1c(Cl)cc2c(c1Cl)C(c1ccccc1F)=NCC(=O)N2C [Example 4, 3-[6,8-dichloro-5-(o-fluorophenyl)-2,3-dihydro-1-methyl-2-oxo-1H-1,4-benzodiazepin-7-yl]-1,1-dimethylurea] | 2500 mg/kg | 160% | 330% | 152% |  |  | 

Reference: US4361511A, “Benzodiazepine derivatives” (Hoffmann-La Roche Inc., priority 1980, dated 1982)
